Columns and labels:
[1] = cited from earlier work; for apparent terminal half-life: patients treated with SAHA; for serum level relative to the parent compound (higher, on average): serum from patients treated with SAHA
[2] = biological target: T1, UGT1A8*3 (UGT1A8p.Cys277Tyr) (Homo sapiens, UniProt Q9HAW9, C277Y); assay: Glucuronidation, UGT1A8*3 variant cell homogenate; type: in vitro ADME; conditions: data not shown
T1 sequence (Q9HAW9 26-530 C277Y): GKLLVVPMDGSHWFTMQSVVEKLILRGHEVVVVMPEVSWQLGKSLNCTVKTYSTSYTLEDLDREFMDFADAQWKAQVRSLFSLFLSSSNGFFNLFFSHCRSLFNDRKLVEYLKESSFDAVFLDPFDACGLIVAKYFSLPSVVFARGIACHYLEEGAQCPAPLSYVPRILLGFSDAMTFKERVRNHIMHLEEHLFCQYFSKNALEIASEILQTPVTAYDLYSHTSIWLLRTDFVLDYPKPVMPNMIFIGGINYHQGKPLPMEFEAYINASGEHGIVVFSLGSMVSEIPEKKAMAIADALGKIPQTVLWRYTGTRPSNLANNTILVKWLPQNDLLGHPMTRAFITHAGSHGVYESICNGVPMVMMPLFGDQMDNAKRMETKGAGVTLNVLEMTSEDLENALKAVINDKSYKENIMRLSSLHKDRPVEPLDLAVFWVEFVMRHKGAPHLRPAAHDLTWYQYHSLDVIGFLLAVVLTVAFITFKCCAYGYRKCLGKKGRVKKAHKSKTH

Row | SMILES | apparent terminal half-life [1] | serum level relative to the parent compound (higher, on average) [1] | glucuronidation activity against 4-methylumbelliferone [2]
1 | O=C(O)CCC(=O)Nc1ccccc1 [4-anilino-4-oxobutanoic acid] | 6 to 9 h | 10- to 13 fold | 
2 | Cc1cc(=O)oc2cc(O)ccc12 [4-methylumbellifer-one] |  |  | detectable levels of activity
3 | O=C(CCCCCCC(=O)Nc1ccccc1)NO[C@@H]1O[C@H](C(=O)O)[C@@H](O)[C@H](O)[C@H]1O [SAHA-glucuronide] | ~ 1.8 hours | 3- to 4 fold | 

— PMC2694132 (Cancer research, 2009)
